# Data published in US20260317356A1, “SMALL MOLECULE MODULATORS OF OGG1” (AZKARRA THERAPEUTICS, INC., priority 2023, published 2026).
# pIC50: −log10 of the molar value.
# Target: hOGG1 (Homo sapiens, UniProt O15527)
# Experiment: Biochemical fluorescence assay to measure enzymatic activity of hOGG1 (OGG1/APEX IC50)
# Design: Protein His-hOGG1 (12-323) was prepared; His (N); host or cells: E. coli
# Conditions: 1 nM OGG1+2 nM APEX+6 nM dsDNA (8-oxo-dG substrate); pH 7.5; RT 40 min; read-out: OGG1/APEX IC50
# Procedure: Biological Example 1: Biochemical Assay to Measure Enzymatic Activity of hOGG1 (OGG1/APEX IC50)
# The reported fluorescence-based assay (Donley et al ACS Chem Biol 2015; 10 (10), 2334-2343) was modified to include hAPE1/APEX1 protein. The oligonucleotide substrate with 8-oxo-dG lesion at X was prepared (LGC Biosearch, Petaluma, CA):
# Protein His-hOGG1 (12-323) was prepared by Chempartner Corporation via E. coliexpression and purification by Ni-NTA and S200 column to afford 95% purity by SDS-PAGE and SEC-HPLC analysis and hAPE1/APEX1 was purchased (SinoBiological). The assay was run in 384-well plates following the general procedure: (1) compound dilution; (2) addition of hOGG1/APEX1 to compound wells; (3) addition of DNA substrate to compound wells; (4) read Ex520/Em600 (TAMRA) fluorescence signal after 40 minutes; (5) calculate % inhibition/compound concentration; (6) calculate dose-response curve and IC50 value.
# • (1) 20 mM of compound solution was prepared in DMSO; • (2) Compounds were diluted to 10 mM in DMSO in ECHO Source plate (Labcyte PP-0200), by mixing […] DMSO; • (3) 4× dilution of compounds, for 10 points, by mixing […] DMSO; and • (4) Dispensed 150 nL compounds to assay plate (Corning 3573) in column 3-22. Dispensed 150 nL DMSO to Min and Max control wells in column 1-2 and column 23-24.
# • (1) Assay buffer was prepared (20 mM Tris pH 7.5, 100 mM KCl, 0.1% BSA, 0.01% Tween). • (2) […] buffer was added to Min control wells (Column 1-2). • (3) Enzyme was diluted to 2× with buffer (2 nM OGG1+4 nM APEX1). Dispensed […] (except Min control wells). Shake at 500 rpm at RT for 20 min. • (4) DNA substrate diluted to 2× with buffer (12 nM). Dispensed […]. Final concentration: 1 nM OGG1+2 nM APEX+6 nM dsDNA. Shake at RT for 40 min. • (5) Ex520/Em600 (TAMRA) was read.
# • (1) Calculated respective mean of Max and Min control wells. • (2) Converted data to percentage inhibition.
# Inhibition (%)=(Max mean−value)/(Max mean−Min mean)×100% • (3) Calculated sigmoidal curve (3-parameter) and IC50 (using GraphPad Prism software).
# hOGG1, sequence (O15527 12-323): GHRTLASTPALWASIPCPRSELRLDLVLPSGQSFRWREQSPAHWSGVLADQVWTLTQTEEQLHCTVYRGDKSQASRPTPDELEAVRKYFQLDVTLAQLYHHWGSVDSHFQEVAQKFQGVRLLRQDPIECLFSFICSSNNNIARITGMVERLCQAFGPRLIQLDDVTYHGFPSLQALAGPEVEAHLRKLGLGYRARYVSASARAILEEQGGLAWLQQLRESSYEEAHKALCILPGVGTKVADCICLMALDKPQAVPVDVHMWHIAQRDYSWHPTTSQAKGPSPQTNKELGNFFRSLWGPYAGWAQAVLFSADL
row,pIC50,Structure (SMILES)
1,> 7.00,"COc1cc(NC(=O)[C@H]2CC[C@@H](N3Cc4c(C)cc(O)cc4NC3=O)CC2)ccc1C [Example 77, (1s,4s)-4-(7-hydroxy-5-methyl-2-oxo-1,2-dihydroquinazolin-3(4H)-yl)-N-(3-methoxy-4-methylphenyl)cyclohexanecarboxamide]"
2,5.00 to 6.00,"COc1cc(NC(=O)N2CCC(N3Cc4c(Br)cccc4C3=O)CC2)ccc1C [Example 181, 4-(4-Bromo-1-oxoisoindolin-2-yl)-N-(3-methoxy-4-methylphenyl)piperidine-1-carboxamide]"
3,6.00 to 7.00,"Cc1cc(NC(=O)[C@H]2CC[C@@H](N3Cc4c(C)cccc4C3=O)CC2)ccc1Cl [Example 225, (1s,4s)-N-(4-Chloro-3-methylphenyl)-4-(4-methyl-1-oxoisoindolin-2-yl)cyclohexanecarboxamide]"
4,> 7.00,"COc1cc(NC(=O)[C@H]2CC[C@@H](N3Cc4c(C)cc(C(=O)NCCN(C)C)cc4C3=O)CC2)ccc1C [Example 217, N-(2-(Dimethylamino)ethyl)-2-((1s,4s)-4-(3-methoxy-4-methylphenylcarbamoyl)cyclohexyl)-7-methyl-3-oxoisoindoline-5-carboxamide]"
5,> 7.00,"COc1cc(NC(=O)[C@H]2CC[C@@H](N3Cc4c(C)ccc(Br)c4NC3=O)CC2)ccc1C [Example 62, (1s,4s)-4-(8-Bromo-5-methyl-2-oxo-1,2-dihydroquinazolin-3(4H)-yl)-N-(3-methoxy-4-methylphenyl)cyclohexanecarboxamide]"
6,> 7.00,"COc1cc(NC(=O)[C@H]2CC[C@@H](N3Cc4c(C)ccc(N5CC(OC)C5)c4NC3=O)CC2)ccc1C [Example 38, (1s,4s)-N-(3-Methoxy-4-methylphenyl)-4-(8-(3-methoxyazetidin-1-yl)-5-methyl-2-oxo-1,2-dihydroquinazolin-3(4H)-yl)cyclohexanecarboxamide]"
7,> 7.00,"COc1cc(NC(=O)[C@H]2CC[C@@H](N3Cc4c(C)cc(C5COC5)cc4NC3=O)CC2)ccc1C [Example 33, (1s,4s)-N-(3-Methoxy-4-methylphenyl)-4-(5-methyl-7-(oxetan-3-yl)-2-oxo-1,2-dihydroquinazolin-3(4H)-yl)cyclohexanecarboxamide]"
8,6.00 to 7.00,"COc1cc(NC(=O)[C@H]2CC[C@@H](n3[nH]c4c(Br)cccc4c3=O)CC2)ccc1C (single isomer, unassigned) [Example 160, (1s,4s)-4-(7-Bromo-3-oxo-1H-indazol-2(3H)-yl)-N-(3-methoxy-4-methylphenyl)cyclohexanecarboxamide]"
9,> 7.00,"COc1cc(NC(=O)[C@H]2CC[C@@H](N3Cc4c(C)ccc(O)c4NC3=O)CC2)ccc1C [Example 61, (1s,4s)-4-(8-hydroxy-5-methyl-2-oxo-1,2-dihydroquinazolin-3(4H)-yl)-N-(3-methoxy-4-methylphenyl)cyclohexanecarboxamide]"
10,< 5.00,"O=C(Nc1ccc(I)cc1)N1CCC(N2Cc3c(Br)cccc3C2=O)CC1 [Example 182, 4-(4-Bromo-1-oxoisoindolin-2-yl)-N-(4-iodophenyl) piperidine-1-carboxamide]"
11,> 7.00,"COc1cc(NC(=O)[C@H]2CC[C@@H](N3Cc4c(C)cc(NCC5CCCN5)cc4C3=O)CC2)ccc1C (stereo partly shown) [Example 194, (1s,4s)-N-(3-methoxy-4-methylphenyl)-4-(4-methyl-1-oxo-6-(pyrrolidin-2-ylmethylamino)isoindolin-2-yl)cyclohexanecarboxamide]"
12,5.00 to 6.00,"COc1cc(NC(=O)[C@H]2CC[C@@H](N3Cc4c(C)cccc4C3=O)CC2)ccc1C1CC1 [Example 121, (1s,4s)-N-(4-Cyclopropyl-3-methoxyphenyl)-4-(4-methyl-1-oxoisoindolin-2-yl)cyclohexane-1-carboxamide]"
13,6.00 to 7.00,"COc1cc(NC(=O)[C@H]2CC[C@@H](N3Cc4c(Br)cc(NCC(C)O)cc4C3=O)CC2)ccc1C (stereo partly shown) [Example 179, (1s,4s)-4-(4-Bromo-6-(2-hydroxypropylamino)-1-oxoisoindolin-2-yl)-N-(3-methoxy-4-methylphenyl)cyclohexanecarboxamide]"
